The target of the assay is Aβ42 (β-amyloid peptide) (Homo sapiens, UniProt P05067). The experiment in a line: fluorescence polarization of the intrinsically fluorescent probe. Format: binding. For orientation: Fluorescence polarisation rises when a labelled molecule tumbles more slowly, as on binding a larger partner.

What is called Kd is the free concentration of one partner at which half of the binding sites on the other are occupied at equilibrium, for simple one-to-one binding.

Chain of Aβ42 (β-amyloid peptide) (P05067 672-713 limits assumed): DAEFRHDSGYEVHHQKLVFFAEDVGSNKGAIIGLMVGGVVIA

As for `COc1cc(C=CC(=O)C(Cc2cn(CCCCCCNC(=O)CCNC(=O)CCNC(=O)COC3CCC4(C)C(=CCC5C4CCC4(C)C(C(C)CCCC(C)C)CCC54)C3)nn2)C(=O)C=Cc2ccc(O)c(OC)c2)ccc1O` (stereo not shown) [compound 7, BMAOI 14], the affinity, expressed as Kd, was 830 nM.
